According to ChEMBL document CHEMBL3044642, “Antimycobacterial activity of fractions and isolated compounds from Vetiveria zizanioides” (2012):
Converted amounts (≈) assume the structure as drawn.

Experiments:
Assay type in all cases: functional
[1] = system: Mycolicibacterium smegmatis; assay: Antimycobacterial activity against rifampicin,amphiciline and kanamycin-resistant Mycobacterium smegmatis MDR-40 after 24 hr by two-fold serial micro broth dilution method; settings: MDR-40, 24 h
[2] = system: Mycolicibacterium smegmatis; assay: Antimycobacterial activity against Mycobacterium smegmatis str. MC2 155 after 24 hr by two-fold serial micro broth dilution method; settings: str. MC2 155, 24 h
[3] = system: Mycolicibacterium smegmatis; assay: Antimycobacterial activity against rifampicin,tetracycline and chloramphenicol-resistant Mycobacterium smegmatis MDR-R after 24 hr by two-fold serial micro broth dilution method
[4] = system: Mycolicibacterium smegmatis; assay: Antimycobacterial activity against ciprofloxacin,lomofloxacin and norflaxacin-resistant Mycobacterium smegmatis CSC-101 after 24 hr by two-fold serial micro broth dilution method; settings: CSC-101, 24 h
[5] = system: Mycolicibacterium smegmatis; assay: Antimycobacterial activity against quinolones and ciprofloxacin-resistant Mycobacterium smegmatis MDRQ after 24 hr by two-fold serial micro broth dilution method
[6] = system: Mycolicibacterium smegmatis; assay: Antimycobacterial activity against lomofloxacin-resistant Mycobacterium smegmatis Lom R5 after 24 hr by two-fold serial micro broth dilution method; settings: Lom R5, 24 h

Q: With `CCn1cc(C(=O)O)c(=O)c2cc(F)c(N3CCNC(C)C3)c(F)c21` (stereo not given) [LOMEFLOXACIN] as the compound, how does the MIC [1] read?
A: 2.5 µg/mL (≈ 7.12 µM)

Q: What about the MIC [2] of the same compound?
A: 0.78 µg/mL (≈ 2.22 µM)

Q: What about the MIC [3] of the same compound?
A: 10 µg/mL (≈ 28.5 µM)

Q: What about the MIC [4] of the same compound?
A: < 1 µg/mL

Q: What about the MIC [5] of the same compound?
A: > 50 µg/mL

Q: What about the MIC [6] of the same compound?
A: > 50 µg/mL

Q: How did the MIC [1] turn out when `O=C(O)c1cn(C2CC2)c2cc(N3CCNCC3)c(F)cc2c1=O` [CIPROFLOXACIN] was run?
A: > 25 µg/mL

Q: And the MIC [2]?
A: 0.78 µg/mL (≈ 2.35 µM)

Q: And the MIC [3]?
A: 3.12 µg/mL (≈ 9.43 µM)

Q: And the MIC [4]?
A: 3.12 µg/mL (≈ 9.43 µM)

Q: What about the MIC [5] of the same compound?
A: 25 µg/mL (≈ 75.4 µM)

Q: And the MIC [6]?
A: 25 µg/mL (≈ 75.4 µM)

Q: `CCn1cc(C(=O)O)c(=O)c2ccc(C)nc21` [NALIDIXIC ACID] was tested. Which MIC [1] did it give?
A: 50 µg/mL (≈ 215 µM)

Q: And the MIC [2]?
A: 0.78 µg/mL (≈ 3.36 µM)

Q: And the MIC [3]?
A: 50 µg/mL (≈ 215 µM)

Q: And the MIC [4]?
A: 6.25 µg/mL (≈ 26.9 µM)

Q: What about the MIC [5] of the same compound?
A: 50 µg/mL (≈ 215 µM)

Q: What about the MIC [6] of the same compound?
A: 25 µg/mL (≈ 108 µM)

Q: `CC1(C)CCC[C@@]2(C)C(CO)[C@H]3CC[C@H]2C3C1` (stereo not given in full) [HYDROXY JUNEPENE] was tested. Which MIC [1] did it give?
A: 31.2 µg/mL (≈ 132 µM)

Q: And the MIC [2]?
A: 62.5 µg/mL (≈ 264 µM)

Q: And the MIC [3]?
A: 62.5 µg/mL (≈ 264 µM)

Q: What about the MIC [4] of the same compound?
A: 125 µg/mL (≈ 529 µM)

Q: What about the MIC [5] of the same compound?
A: > 250 µg/mL

Q: And the MIC [6]?
A: > 250 µg/mL

Q: How did the MIC [1] turn out when `CCCCC#CCCCC#CCCCCO` was run?
A: 31.2 µg/mL (≈ 142 µM)

Q: What about the MIC [2] of the same compound?
A: 125 µg/mL (≈ 567 µM)

Q: And the MIC [3]?
A: 31.2 µg/mL (≈ 142 µM)

Q: What about the MIC [4] of the same compound?
A: 62.5 µg/mL (≈ 284 µM)

Q: What about the MIC [5] of the same compound?
A: 250 µg/mL (≈ 1130 µM)

Q: What about the MIC [6] of the same compound?
A: > 250 µg/mL
